Assay results as given in article PMC10649008 (Antimicrobial Agents and Chemotherapy, 2023).
Several values for one entry are separate records, joined by “and”; a condition that tells them apart may be missing. Equal entries are not always repeated. Where two headings read alike, the source gives them in different places.

What was measured:
[1] = Description: All study procedures were reviewed and approved by the respective Institutional Review Board for each study site. Prior to any study procedures, written informed consent from a parent or legal guardian and assent (if appropriate for older patients) were obtained. The patient population consisted of subjects aged >12 months to <17 years of age who required systemic antibiotic therapy for the treatment or prevention of known or suspected bacterial infection. Subjects were enrolled into four cohorts stratified by age: adolescents (12–17 years of age), older children (6–11 years of age), younger children (2–5 years of age), and infants (1–2 years of age). […] The study consisted of a screening period followed by a treatment period and a safety follow-up period through Day 8 ± 1 day.
(§1) Safety was monitored during both the screening and treatment periods by physical exams, vital signs, urinalysis, and clinical laboratory measures (complete blood count with differential, serum chemistry, creatinine, and liver enzymes); AEs and concomitant medications were recorded from screening through follow-up on Day 8 (± 1 day). Medical and medication history and demographics were collected at screening. Vital signs (heart rate, blood pressure, respiratory rate, and body temperature) were collected at screening, Days 1 and 2 of the study.

[2] = post-dose, single 10 mg/kg IV
Procedure: as §1

[3] = Healthy adults, N = 42, single 10 mg/kg IV dose, mean ± SD, cited from earlier work
[4] = five courses in three adolescent cystic fibrosis patients; 8.7–10 mg/kg daily for up to 3 weeks; cited from earlier work
[5] = all cohorts, three of 22 subjects, single 10 mg/kg IV
[6] = all cohorts, two of 22 subjects, single 10 mg/kg IV

With `CCCCCCCCCCNCCN[C@@]1(C)C[C@H](O[C@H]2[C@H](Oc3c4cc5cc3Oc3ccc(cc3Cl)[C@@H](O)[C@@H](NC(=O)[C@@H](CC(C)C)NC)C(=O)N[C@@H](CC(N)=O)C(=O)N[C@H]5C(=O)N[C@H]3C(=O)N[C@H](C(=O)N[C@H](C(=O)O)c5cc(O)c(CNCP(=O)(O)O)c(O)c5-c5cc3ccc5O)[C@H](O)c3ccc(c(Cl)c3)O4)O[C@H](CO)[C@@H](O)[C@@H]2O)O[C@@H](C)[C@H]1O` [telavancin] the “Number of adverse events moderate in severity” value ([1]; Cohort 2 (6–11 years), of 11 AEs, single 10 mg/kg IV) was “two”, the “Adverse events considered probably related to telavancin administration” value ([1]; Cohort 2 (6–11 years), six of the 11 events) was 55% and the Adverse events ([1]; Cohort 3 (2–5 years), single subject, single 10 mg/kg IV) was “No AEs were reported”. The “Subjects with adverse events” value ([1]; all cohorts, 10 of the 22 subjects, single 10 mg/kg IV, through Day 8 ± 1) was 45%, the “Total number of adverse events (AEs)” value ([1]; all cohorts, 22 subjects 2–17 years, single 10 mg/kg IV, through Day 8 ± 1) was 27 and the Serious adverse events ([1]; all cohorts, 22 subjects, single 10 mg/kg IV) was “no serious AEs”. The Subjects with nausea ([1]; all cohorts, four of 22 subjects, single 10 mg/kg IV) was 18%, the “Subjects with foamy urine” value [1, 5] was 14% and the “Subjects with taste disturbance/metallic taste” value [1, 5] was 14%. For the same molecule, the Subjects with dizziness [1, 6] was 9%, the Subjects with headache [1, 6] was 9% and the “Tolerability of a single dose” value ([1]; all pediatric age cohorts, single 10 mg/kg IV) was “well-tolerated”. The “QT interval (12-lead ECG)” value ([1]; one subject in Cohort 2 (6–11 years), ECG 1.5–2.5 h after start of infusion, moderate, resolved prior to Day 8) was “prolonged QT interval”, the Infusion reactions ([1]; single 10 mg/kg infusion administered over an hour, all cohorts) was “no infusion reactions” and the “Clinically significant abnormalities following telavancin administration” value ([1]; worsened ALT and LDH in one Cohort 1 subject, prolonged QT in one Cohort 2 subject, moderate, resolved prior to Day 8) was “three”. For the same molecule, the Creatinine ([2]; Cohort 1 (12 to 17 years), 9 subjects, pre-dose 0.6 ± 0.2 (N = 14)) was 1.0 ± 1.1 mg/dL, the Total bilirubin ([2]; Cohort 1 (12 to 17 years), 9 subjects, pre-dose 0.6 ± 0.3 (N = 14)) was 0.3 ± 0.2 mg/dL and the Leukocytes ([2]; Cohort 1 (12 to 17 years), 9 subjects, pre-dose 10.3 ± 3.1 (N = 14)) was 7.3 ± 2.0 x10^9/L. It also gave a Hemoglobin ([2]; Cohort 1 (12 to 17 years), 9 subjects, pre-dose 12.2 ± 1.7 (N = 14)) of 12.1 ± 1.4 g/dL, an Alanine aminotransferase ([2]; Cohort 1 (12 to 17 years), 9 subjects, pre-dose 25.9 ± 15.1 (N = 14)) of 37.4 ± 24.2 IU/L and an Aspartate aminotransferase ([2]; Cohort 1 (12 to 17 years), 9 subjects, pre-dose 50.9 ± 56.2 (N = 14)) of 72.8 ± 72.0 IU/L. For the same molecule, the Platelets ([2]; Cohort 1 (12 to 17 years), 9 subjects, pre-dose 226 ± 69.1 (N = 14)) was 236 ± 85.9 x10^9/L, the Lactate dehydrogenase ([2]; Cohort 1 (12 to 17 years), 9 subjects, pre-dose 361 ± 247 (N = 14)) was 439 ± 270 IU/L and the Creatinine ([2]; Cohort 2 (6 to 11 years), 6 subjects, pre-dose 0.4± 0.1 (N = 7)) was 0.4 ± 0.1 mg/dL. The Total bilirubin ([2]; Cohort 2 (6 to 11 years), 6 subjects, pre-dose 0.6 ± 0.5 (N = 7)) was 0.5 ± 0.3 mg/dL, the Leukocytes ([2]; Cohort 2 (6 to 11 years), 6 subjects, pre-dose 8.3 ± 3.0 (N = 7)) was 6.3 ± 1.3 x10^9/L and the Hemoglobin ([2]; Cohort 2 (6 to 11 years), 6 subjects, pre-dose 11.7 ± 1.4 (N = 7)) was 11.9 ± 1.4 g/dL. For the same molecule, the Alanine aminotransferase ([2]; Cohort 2 (6 to 11 years), 6 subjects, pre-dose 30.9 ± 12.2 (N = 7)) was 36.8 ± 19.4 IU/L, the Aspartate aminotransferase ([2]; Cohort 2 (6 to 11 years), 6 subjects, pre-dose 41.6 ± 26.0 (N = 7)) was 46.7 ± 40.7 IU/L and the Platelets ([2]; Cohort 2 (6 to 11 years), 6 subjects, pre-dose 267 ± 73.6 (N = 7)) was 289 ± 105.5 x10^9/L. The Creatinine ([2]; Cohort 3 (2 to 5 years), N = 1, pre-dose 0.2 ± 0.0) was 0.2 ± 0.0 mg/dL, the Total bilirubin ([2]; Cohort 3 (2 to 5 years), N = 1, pre-dose 0.4 ± 0.0) was 0.4 ± 0.0 mg/dL and the Leukocytes ([2]; Cohort 3 (2 to 5 years), N = 1, pre-dose 4.6 ± 0.0) was 7.5 ± 0.0 x10^9/L. For the same molecule, the Hemoglobin ([2]; Cohort 3 (2 to 5 years), N = 1, pre-dose 10.0 ± 0.0) was 10.3 ± 0.0 g/dL, the Aspartate aminotransferase ([2]; Cohort 3 (2 to 5 years), N = 1, pre-dose 41.0 ± 0.0) was 37.0 ± 0.0 IU/L and the Alanine aminotransferase ([2]; Cohort 3 (2 to 5 years), N = 1, pre-dose 72.0 ± 0.0) was 62.0 ± 0.0 IU/L. For the same molecule, the Platelets ([2]; Cohort 3 (2 to 5 years), N = 1, pre-dose 148 ± 0.0) was 195 ± 0.0 x10^9/L, the Lactate dehydrogenase ([2]; Cohort 3 (2 to 5 years), N = 1, pre-dose 477 ± 0.0) was 480 ± 0.0 IU/L and the “AUC0-inf (area under the curve extrapolated to infinity)” value ([3]; 10 mg/kg) was 747 µg·h/mL and 747 ± 129 µg·h/mL. The “T 1/2 (terminal elimination half-life)” value ([3]; 10 mg/kg) was 8.0 h and 8.0 ± 1.5 h, the “C max (maximum plasma concentration)” value [3] was 93.6 ± 14.2 µg/mL and the “CL (clearance)” value [3] was 0.0139 ± 0.0029 L/h/kg. The “Serum creatinine across courses of treatment” value [4] was “remained stable”.
